Results published in ChEMBL document CHEMBL1201862, “PubChem BioAssay data set” (2004).
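Dose response: 5 concentrations. Exposure: 48 h. Format: 96-well plates. Endpoint: linear interpolation; highest concentration if not reached. GI50 marks 50% less growth.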 Calls of active or inactive are those of the source. Rule as the data show it: active = GI50 up to about 1.1 µM and inactive = higher.

Key:
Experiment in all cases: inhibition of tumour cell growth, NCI panel, 48 h
NCI-H522 = test system: NCI-H522
LXFL 529 = test system: LXFL 529
HOP-18 = test system: HOP-18
KM12 = test system: KM12
SF-295 = test system: SF-295
OVCAR-5 = test system: OVCAR-5
RXF 631 = test system: RXF 631
UACC-257 = test system: UACC-257
DMS-273 = test system: DMS-273
HT-29 = test system: HT-29
786-0 = test system: 786-0
SNB-75 = test system: SNB-75
Malme-3M = test system: Malme-3M
NCI-H460 = test system: NCI-H460
ACHN = test system: ACHN
RPMI-8226 = test system: RPMI-8226
IGROV-1 = test system: IGROV-1
CAKI-1 = test system: CAKI-1
TK-10 = test system: TK-10
SR = test system: SR
OVCAR-4 = test system: OVCAR-4
EKVX = test system: EKVX
SNB-78 = test system: SNB-78
SK-MEL-28 = test system: SK-MEL-28
UO-31 = test system: UO-31
SN12C = test system: SN12C
NCI-H23 = test system: NCI-H23
SF-268 = test system: SF-268
SK-MEL-5 = test system: SK-MEL-5
NCI-H226 = test system: NCI-H226
HCT-15 = test system: HCT-15
SNB-19 = test system: SNB-19
SW-620 = test system: SW-620
CCRF-CEM = test system: CCRF-CEM
RXF 393 = test system: RXF 393
MOLT-4 = test system: MOLT-4
M14 = test system: M14
LOX IMVI = test system: LOX IMVI
HCT-116 = test system: HCT-116
DLD-1 = test system: DLD-1
SF-539 = test system: SF-539
XF498 = test system: XF498
SK-MEL-2 = test system: SK-MEL-2
M19-MEL = test system: M19-MEL
A498 = test system: A498
HCC 2998 = test system: HCC 2998
OVCAR-8 = test system: OVCAR-8
UACC-62 = test system: UACC-62
U-251 = test system: U-251
HOP-92 = test system: HOP-92
SK-OV-3 = test system: SK-OV-3
HL-60 = test system: HL-60
KM-20L2 = test system: KM-20L2
DMS-114 = test system: DMS-114
HOP-62 = test system: HOP-62
COLO 205 = test system: COLO 205
A549 = test system: A549
K562 = test system: K562
OVCAR-3 = test system: OVCAR-3

Measured: GI50

COc1cccc2nc3c(C(=O)NCCN(C)C)cccc3nc12
active: SF-268 0.713 µM | XF498 0.986 µM
7 µM: HCT-15
inactive: NCI-H522 11.9 µM | LXFL 529 11.1 µM | HOP-18 29.5 µM | KM12 7.19 µM | SF-295 10.1 µM | OVCAR-5 15.9 µM | RXF 631 10.8 µM | UACC-257 6.03 µM | DMS-273 7.36 µM | HT-29 4.63 µM | 786-0 10.6 µM | SNB-75 12.4 µM | Malme-3M 7.96 µM | NCI-H460 3.78 µM | ACHN 4.3 µM | RPMI-8226 6.49 µM | IGROV-1 16.1 µM | CAKI-1 17.1 µM | TK-10 11 µM | SR 3.38 µM | OVCAR-4 8.77 µM | EKVX 12.6 µM | SNB-78 12.9 µM | SK-MEL-28 13.8 µM | UO-31 12.2 µM | SN12C 9.2 µM | NCI-H23 11.8 µM | SK-MEL-5 11.8 µM | NCI-H226 5.27 µM | SNB-19 17.4 µM | SW-620 5.42 µM | CCRF-CEM 5.35 µM | RXF 393 11.6 µM | MOLT-4 3.61 µM | M14 13.4 µM | LOX IMVI 4.2 µM | HCT-116 3.79 µM | DLD-1 5.68 µM | SF-539 4.27 µM | SK-MEL-2 8.73 µM | M19-MEL 8.07 µM | A498 9.27 µM | HCC 2998 10.8 µM | OVCAR-8 9.12 µM | UACC-62 12.6 µM | U-251 12.6 µM | HOP-92 6.17 µM | SK-OV-3 25.1 µM | HL-60 4.51 µM | KM-20L2 8.38 µM | DMS-114 8.07 µM | HOP-62 11.4 µM | COLO 205 5.2 µM | A549 7.35 µM | K562 3.76 µM | OVCAR-3 18.1 µM
